Assays:
[1] = tested on: pharyngeal surface; assay: Chili-pepper sauce cough challenge test; type: in vivo, human; set-up: key: If there is no attenuation of the challenge stimuli, the score is 0; if there is partial inhibition, the score is +; if there is complete attenuation of the cough signal, the score is ++; details: challenge 45 to 50 min after ODT containing 2 mg of test substance
Text: A number of cough challenge methods have been devised for evoking the cough reflex (Morice et al. Briti. J. Clin. Pharmacol. 52: 365-375, 2001). Usually, citric acid or capsaicin is delivered via the inhalation route to volunteers and the number of coughs counted. […] The chili pepper sauce used here is called Yank Sing® Chili Pepper Sauce (YS Gourmet Productions, Inc., PO Box 26189, San Francisco, Calif. 94126) and is a well-known condiment for use with dim sum (Chinese tea lunch). The sensations associated with the chili pepper sauce are located in the back of the mouth and are clearly recognized and associated with a desire to clear the throat. […] To test for anti-cough activity the ODT with the test substance is first administered onto the dorsal surface of the tongue and 45 to 50 min afterwards the chili-pepper sauce test is administered. If there is no attenuation of the challenge stimuli, the score is 0, if there is partial inhibition, the score is +, and if there is complete attenuation of the cough signal, the score is ++. In the presence of an ODT that results in a ++ score, the irritative signals are completely absent, yet the salty taste used in the soy sauce of the condiment can still be easily tasted. The test substances in the ODT that produced a ++ score were then identified and further tested for effectiveness in the treatment of cough.

[2] = tested on: cough; type: in vivo, human; details: for cooling action of ODT on the pharyngeal surface: Study 6, ODT; for effectiveness in reducing cough: Study 6, ODT 2.0 to 2.5 mg, 14 adult males with cough
Description: In 20 trials, 10 trials per subject, two mg of 95%+ pure powder of a D-Ala ethyl compound (No. 2 in Table 1, (R)-2-[((1R,2S,5R)-2-isopropyl-5-methyl-cyclohexanecarbonyl)-amino]-propionic acid ethyl ester)) of Formula (1) was placed on the mid-portion of the tongue of these two subjects. Both subjects reported relief from the desire to cough within 1 minute after application. Sensations of robust coolness in the back of the throat was noted and lasted for about 30 minutes. Applications of similar amounts of powdered sugar were not effective. The placebo could be clearly distinguished from the active compound because of the absence of cooling sensations.
A person with a documented 31-year history of asthma attacks volunteered to test one of the compounds falling within Formula (1). They were extremely sensitive to agents such as tobacco smoke, dust, pollen, odors, down/woolen materials, house cleansing products, pets, and sudden change of air temperature, and reacted with violent coughing, mucus secretions, wheezing, choking, and shortness of breath. At the time of this trial, they were taking these medications for their condition: theophylline, Allegra®, Advair®, Intal®, and Singulair®. In 5 trials, during a coughing spree, they placed one to two mg of 95%+ pure powder of a D-Ala ethyl ester (No. 2 in Table 1, ((R)-2-[((1R,2S,5R)-2-isopropyl-5-methyl-cyclohexanecarbonyl)-amino]-propionic acid ethyl ester))) of Formula (1) on the mid-portion of their tongue. They reported a soothing and cool sensation with a slight taste similar to Eucalyptus oil in their mouth and throat. Coughing stopped after 3 to 5 minutes and breathing was normal. […] In three trials when the compound was applied at night, they slept through the night without being awakened by cough. Their spouse remarked that, in over 30 years of marriage, this was the first time that they had seen an effective medication for their cough. They noted that the irritative signals of cough were absent in the presence of the applied chemical, but they still sensed a mechanical build up of secretions in their airways and could voluntarily cough up such secretions if necessary. They continue to use the test compound for management of their asthma, with the knowledge and consent of their physician.
A person had adult-onset asthma for 20 years. Triggers for attacks were tobacco smoke, dust, and changes in air temperature. They used Foradil® (formoterol fumarate) and Asmanex® (mometasone fuorate) twice a day to control their asthma, and monitored their pulmonary function with a portable device for measuring peak expiratory flow. They had daily episodes of both productive and non-productive cough. In 5 trials, when they felt throat irritation and a desire to cough, placement of 1 to 3 mg of (R)-2-[((1R,2S,5R)-2-isopropyl-5-methyl-cyclohexanecarbonyl)-amino]-propionic acid ethyl ester) (No. 2 in Table 1) provided rapid relief and was described as soothing and removed “tightness” in the chest. Peak expiratory flow improved from 320 Umin to 370 Umin. […] The subjective response to the long-acting NACE compound was definitely favourable. The subject remarked that the best time to use the NACE compuound was after inhaling the crystalline Foradil® because this inhaled drug irritated their throat.
ODT containing 2.0 to 2.5 mg of D-Aa Me Ester, D-Ala Et Ester, or D-Ala iPr Ester (identified chemically in Table 1 as No. 1, No. 2, and No. 3, respectively) were prepared using mannitol/maltitol as the excipient and stored in tic-tac boxes each containing 10 tablets. Over a course of two years, 14 adult males with cough tested these tablets. The causes of coughing were colds/flu, allergies, pharyngitis, excessive smoking, and two cases of gastroesophageal reflux. These individuals all had advanced degrees (M.D. or Ph.D.) and were motivated to try the tablets by scientific curiosity or because of financial interests in drug development, or, in several cases, by the annoyance caused by the cough. […]

| Compound | Chili-Pepper Sauce Test [1] | cooling action of ODT on the pharyngeal surface [2] | duration of absence of irritation and itching at the back of the throat (cough signals) ([2]; Study 3) | time individual was observed not to cough ([2]; Study 3) | time desire to cough was removed ([2]; Study 3, after 4 or 6 applications within 2 days) | time to relief from the desire to cough ([2]; Study 3, two cigar smokers, two mg powder on tongue) | duration of robust coolness in the back of the throat ([2]; Study 3, two mg powder on tongue) | time until coughing stopped ([2]; Study 4, asthmatic, one to two mg on tongue) | recurrence of asthmatic coughing attacks ([2]; Study 4, continued use) | effect when given in the midst of a productive cough spell ([2]; Study 5, 3 episodes) | relief of throat irritation and desire to cough ([2]; Study 5, 5 trials, 1 to 3 mg) | Peak expiratory flow ([2]; Study 5, asthmatic, 1 to 3 mg, improved from 320) | effectiveness in reducing cough [2] | side-effects ([2]; human, in vivo) |
| --- | --- | --- | --- | --- | --- | --- | --- | --- | --- | --- | --- | --- | --- | --- |
| CCOC(=O)C(C)NC(=O)[C@@H]1C[C@H](C)CC[C@H]1C(C)C (stereo partly drawn) [L-Ala-OEt] | 0 | inactive | – | – | – | – | – | – | – | – | – | – | – | – |
| CCOC(=O)[C@@H](C)NC(=O)[C@@H]1C[C@H](C)CC[C@H]1C(C)C [D-Ala-OEt, (R)-2-[((1R,2S,5R)-2-isopropyl-5-methyl-cyclohexanecarbonyl)-amino]-propionic acid ethyl ester] | ++ | robust cooling action | 4 to 5 h | 6 to 8 h | at least 5 days | ≤ 1 min | about 30 minutes | 3 to 5 min | have not recurred with any severity for one month | no significant effects were observed | rapid relief | 370 Umin | 100% | did not sense any build up of mucus or other side-effects |
| COC(=O)[C@@H](C)NC(=O)[C@@H]1C[C@H](C)CC[C@H]1C(C)C [D-Ala-OMe, (R)-2-[((1R,2S,5R)-2-isopropyl-5-methyl-cyclohexanecarbonyl)-amino]-propionic acid methyl ester] | ++ | robust cooling action | – | – | – | – | – | – | – | – | – | – | 100% | – |

— US8476317B2, “N-alkylcarbonyl-amino acid ester compounds and their use for cough and pharyngitis” (priority 2011, dated 2013)
